Experimental data published in the supplement of paper PMC11061612.

What was measured:
Test in all cases: Bliss excess, mean over the matrix (fraction); higher = more synergy
[1] = test system: DBTRG-05MG (Glioblastoma)
In short: (§1)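 Cell lines grown in DMEM/F12 or RPMI with 10% FBS were plated in 1536-well plates and held 24 hours at 37°C, 5% CO2 before 72 hours of exposure to two-drug dose matrices, with DMSO typically at 0.2%. CellTiter-Glo 2.0 luminescence gave viability, which was converted to inhibition. Vehicle wells were set to 0 and blank wells to 1. Combination Emax is the second-highest inhibition in the matrix, and Bliss excess is the observed combination effect minus the expected EA + EB − EA·EB, where EA and EB are the single-agent effects.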

[2] = test system: MOLP-8 (Plasma Cell Myeloma)
In short: as §1

[3] = test system: MOLT-13 (T-Lymphoblastic Leukemia)
In short: as §1

[4] = test system: NCI-H1876 (Small Cell Lung Carcinoma)
In short: as §1

[5] = test system: NCI-H2373 (Mesothelioma)
In short: as §1

[6] = test system: OVCAR-3 (Ovarian Carcinoma)
In short: as §1

[7] = test system: P32-ISH (Burkitt's Lymphoma)
In short: as §1

[8] = test system: SUP-M2 (T-Cell Non-Hodgkin's Lymphoma)
In short: as §1

[9] = test system: SiHa (Cervical Carcinoma)
In short: as §1

[10] = test system: C-33-A (Cervical Carcinoma)
In short: as §1

[11] = test system: COR-L88 (Small Cell Lung Carcinoma)
In short: as §1

[12] = test system: CPC-N (Small Cell Lung Carcinoma)
In short: as §1

[13] = test system: ES6 (Ewing's Sarcoma)
In short: as §1

[14] = test system: LS-1034 (Colorectal Carcinoma)
In short: as §1

[15] = test system: MDA-MB-415 (Breast Carcinoma)
In short: as §1

[16] = test system: MONO-MAC-6 (Acute Myeloid Leukemia)
In short: as §1

[17] = test system: MS-1 (Small Cell Lung Carcinoma)
In short: as §1

[18] = test system: NCI-H3118 (Head and Neck Carcinoma)
In short: as §1

[19] = test system: RCC-JW (Kidney Carcinoma)
In short: as §1

[20] = test system: ZR-75-30 (Breast Carcinoma)
In short: as §1

Compound	Bliss excess [1]	Bliss excess [2]	Bliss excess [3]	Bliss excess [4]	Bliss excess [5]	Bliss excess [6]	Bliss excess [7]	Bliss excess [8]	Bliss excess [9]	Bliss excess [10]	Bliss excess [11]	Bliss excess [12]	Bliss excess [13]	Bliss excess [14]	Bliss excess [15]	Bliss excess [16]	Bliss excess [17]	Bliss excess [18]	Bliss excess [19]	Bliss excess [20]
C[C@@H](c1ccc2nccn2c1)n1nnc2ncc(-c3cnn(C)c3)nc21 [Savolitinib] + CN(CC[C@H](CSC1=CC=CC=C1)NC2=C(C=C(C=C2)S(=O)(=O)NC(=O)C3=CC=C(C=C3)N4CCC(CC4)[C@H](C5=CC=CC=C5C6=CC=C(C=C6)Cl)O)S(=O)(=O)C(F)(F)F)CCO [AZD4320] (first compound max 1 µM, 7x7, partner max 1 µM)	-0.0262	0.0014	-0.0166	-0.0256	-0.0681	-0.0388	-0.022	-0.058	-0.0396											
CCc1c2c(nc3ccc(O)cc13)-c1cc3c(c(=O)n1C2)COC(=O)[C@]3(O)CC [SN-38] + O=C(c1cc(Cc2n[nH]c(=O)c3ccccc23)ccc1F)N1CCN(C(=O)C2CC2)CC1 [Olaparib] (first compound max 0.3 µM, 7x7, partner max 10 µM)	0.0015	0.0336	0.0811		-0.0716	0.0986	0.0645	0.0641	0.0271	0.0577	0.0785	0.105	0.13	0.0494	0.026	0.141	0.0551	0.106	0.112	-0.0169
COc1nnc2ccc(N3CCC(c4ccc(OCCN5CCN(C)C(=O)[C@H]5C)cc4)CC3)nn12 [AZD5153] + CC1(C)CCC(CN2CCN(c3ccc(C(=O)NS(=O)(=O)c4ccc(NCC5CCOCC5)c([N+](=O)[O-])c4)c(Oc4cnc5[nH]ccc5c4)c3)CC2)=C(c2ccc(Cl)cc2)C1 [Venetoclax] (first compound max 1 µM, 7x7, partner max 1 µM)	-0.0832	0.0065	0.11	0.0029	-0.0769	-0.0157	-0.0067	-0.0172	-0.0986	-0.0107	-0.0179	0.0046	-0.0327	-0.011	-0.0155	0.0179	0.0094	-0.0517	-0.0551	-0.0852
Cc1c2c(nn1C)CSCc1cc(n(C)n1)CSc1cc(c3ccccc3c1)OCCCc1c(C(=O)O)n(C)c3c-2c(Cl)ccc13 [AZD5991] + CN(C)CCCOc1ccc(-c2ccc3ncc4c(c3c2)n(C2CCOCC2)c(=O)n4C)cn1 [AZD0156] (first compound max 1 µM, 7x7, partner max 1 µM)	0.0252	0.0086	-0.0198	0.0541	-0.0069	0.0405	0.0083	-0.0012	0.0341	-0.0089	-0.0129	-0.0129	-0.0113	-0.0032	-0.0183	-0.0433	-0.0347	0.0092	-0.0001	-0.0128
CC(=O)c1c(C)c2cnc(Nc3ccc(N4CCNCC4)cn3)nc2n(C2CCCC2)c1=O [Palbociclib] + CN(CC[C@H](CSC1=CC=CC=C1)NC2=C(C=C(C=C2)S(=O)(=O)NC(=O)C3=CC=C(C=C3)N4CCC(CC4)[C@H](C5=CC=CC=C5C6=CC=C(C=C6)Cl)O)S(=O)(=O)C(F)(F)F)CCO [AZD4320] (first compound max 10 µM, 7x7, partner max 1 µM)	-0.119	0.0145	-0.0216	-0.0286	-0.0794	-0.0429	0.0075	0.0414	-0.044											
C=CCn1c(=O)c2cnc(Nc3ccc(N4CCN(C)CC4)cc3)nc2n1-c1cccc(C(C)(C)O)n1 [AZD1775] + C1CN(CCC1(C(=O)N[C@@H](CCO)C2=CC=C(C=C2)Cl)N)C3=NC=NC4=C3C=CN4 [Capivasertib] (first compound max 3 µM, partner max 3 µM)	0.005	0.0286	0.0139	-0.0304	-0.0393	-0.025	0.0417	0.0518	-0.0212	-0.0323	-0.0949	-0.0415		-0.0125	0.0043	0.031	0.0208	-0.0253	-0.0527	-0.0501
COc1nnc2ccc(N3CCC(c4ccc(OCCN5CCN(C)C(=O)[C@H]5C)cc4)CC3)nn12 [AZD5153] + CN(CC[C@H](CSC1=CC=CC=C1)NC2=C(C=C(C=C2)S(=O)(=O)NC(=O)C3=CC=C(C=C3)N4CCC(CC4)[C@H](C5=CC=CC=C5C6=CC=C(C=C6)Cl)O)S(=O)(=O)C(F)(F)F)CCO [AZD4320] (first compound max 1 µM, 7x7, partner max 1 µM)	-0.0517	0.0239	0.0376	0.134	0.0157	0.0914	-0.0595	-0.0028	0.0846											
Cc1c2c(nn1C)CSCc1cc(n(C)n1)CSc1cc(c3ccccc3c1)OCCCc1c(C(=O)O)n(C)c3c-2c(Cl)ccc13 [AZD5991] + C1CN(CCC1(C(=O)N[C@@H](CCO)C2=CC=C(C=C2)Cl)N)C3=NC=NC4=C3C=CN4 [Capivasertib] (first compound max 1 µM, 7x7, partner max 3 µM)	-0.0215	0.0077	-0.0135	0.0708	-0.0671	0.0217	0.0276	-0.0079		0.0063	-0.0058	0.0177	-0.0055	-0.0042	0.0144	0.0378	0.0265	0.0263	0.0131	-0.0119
